Source: article PMC7252619 (PLoS ONE, 2020)
Where “and” joins values, the source holds several entries; their conditions need not be identical. Identical values can stand only once. Like-named read-outs stand apart in the source and are kept apart here.

What was measured:
Test in all cases: Kinase activity test (ReactionBiology), % enzyme activity relative to DMSO
Format in all cases: biochemical
DAPK1 = target: T1, DAPK1 (Homo sapiens, UniProt P53355)
T1 construct: purchased ReactionBiology

CDC7 = target: T2, CDC7 (Homo sapiens, UniProt O00311); conditions: CDC7; for % Enzyme Activity (relative to DMSO controls), Data 1: replicate Data 1; for % Enzyme Activity (relative to DMSO controls), Data 2: replicate Data 2;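 on all read-outs here: each drug screened at both 10 µM and 1 µM across a ten-kinase panel, activity expressed as percent of DMSO control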
T2 construct: purchased ReactionBiology

VEGFR2 = VEGFR2 (Homo sapiens, UniProt P35968); parameters: purchased ReactionBiology; conditions: VEGFR2;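 further: VEGFR2 was one member of a ten-kinase screening panel testing marketed FDA-approved drugs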
MAP2K2 = target: T3, MAP2K2 (Homo sapiens, UniProt P36507); conditions: MEK2
T3 construct: purchased ReactionBiology

MST-4 = target: T4, MST-4 (Homo sapiens, UniProt Q9P289); conditions: MST4; for % Enzyme Activity (relative to DMSO controls), Data 1: replicate Data 1; for % Enzyme Activity (relative to DMSO controls), Data 2: replicate Data 2;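 on all read-outs here: marketed FDA-approved drugs screened at 10 µM and 1 µM against a ten-kinase panel, remaining activity given as percent of DMSO controls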
T4 construct: purchased ReactionBiology

NEK2 = target: T5, NEK2 (Homo sapiens, UniProt P51955); conditions: NEK2;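 further: FDA-approved drugs chosen by structure-based repositioning, each screened at 10 or 1 µM for kinase activity, expressed as percent of DMSO controls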
T5 construct: purchased ReactionBiology
T5 sequence (P51955 1-445): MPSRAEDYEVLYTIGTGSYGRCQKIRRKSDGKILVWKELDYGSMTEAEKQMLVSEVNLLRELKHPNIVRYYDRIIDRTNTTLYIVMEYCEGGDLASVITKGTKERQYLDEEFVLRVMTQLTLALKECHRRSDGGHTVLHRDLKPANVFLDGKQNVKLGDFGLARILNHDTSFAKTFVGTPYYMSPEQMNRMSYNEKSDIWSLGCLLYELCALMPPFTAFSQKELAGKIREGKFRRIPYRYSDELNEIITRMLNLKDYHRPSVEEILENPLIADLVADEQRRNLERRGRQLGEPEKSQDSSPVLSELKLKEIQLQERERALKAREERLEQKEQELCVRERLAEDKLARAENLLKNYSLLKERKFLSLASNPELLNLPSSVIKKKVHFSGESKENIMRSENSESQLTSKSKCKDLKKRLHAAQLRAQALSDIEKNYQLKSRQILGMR

[1] = 1 uM, Average, read-out: % Enzyme Activity (relative to DMSO controls), Average
[2] = 1 uM, replicate Data 1, read-out: % Enzyme Activity (relative to DMSO controls), Data 1
[3] = 1 uM, replicate Data 2, read-out: % Enzyme Activity (relative to DMSO controls), Data 2
[4] = 10 uM, Average, read-out: % Enzyme Activity (relative to DMSO controls), Average
[5] = 10 uM, replicate Data 1, read-out: % Enzyme Activity (relative to DMSO controls), Data 1
[6] = 10 uM, replicate Data 2, read-out: % Enzyme Activity (relative to DMSO controls), Data 2

T4 sequence (Q9P289 whole entry): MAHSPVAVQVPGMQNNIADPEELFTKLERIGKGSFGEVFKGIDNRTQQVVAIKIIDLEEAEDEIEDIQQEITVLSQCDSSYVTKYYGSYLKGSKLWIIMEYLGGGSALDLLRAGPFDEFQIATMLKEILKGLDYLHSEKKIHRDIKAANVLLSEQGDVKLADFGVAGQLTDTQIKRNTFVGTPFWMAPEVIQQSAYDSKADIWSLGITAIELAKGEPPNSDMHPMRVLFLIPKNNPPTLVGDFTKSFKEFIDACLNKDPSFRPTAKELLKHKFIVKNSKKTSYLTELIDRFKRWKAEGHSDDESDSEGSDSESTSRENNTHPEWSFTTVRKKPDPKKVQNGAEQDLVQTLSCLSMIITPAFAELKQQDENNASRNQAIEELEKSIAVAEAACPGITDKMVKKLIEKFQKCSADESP
T3 sequence (P36507 whole entry): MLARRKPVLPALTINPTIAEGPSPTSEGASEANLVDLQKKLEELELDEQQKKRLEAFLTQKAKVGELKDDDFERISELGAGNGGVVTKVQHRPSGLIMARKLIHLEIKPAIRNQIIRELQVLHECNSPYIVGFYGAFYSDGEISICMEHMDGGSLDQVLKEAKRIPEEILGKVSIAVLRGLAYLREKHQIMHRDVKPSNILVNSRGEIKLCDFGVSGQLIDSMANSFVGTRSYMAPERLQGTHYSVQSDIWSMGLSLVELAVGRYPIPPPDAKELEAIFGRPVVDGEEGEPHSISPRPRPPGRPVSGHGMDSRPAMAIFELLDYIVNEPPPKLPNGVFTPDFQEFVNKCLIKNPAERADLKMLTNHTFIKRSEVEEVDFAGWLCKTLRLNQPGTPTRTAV
T1 sequence (P53355 whole entry): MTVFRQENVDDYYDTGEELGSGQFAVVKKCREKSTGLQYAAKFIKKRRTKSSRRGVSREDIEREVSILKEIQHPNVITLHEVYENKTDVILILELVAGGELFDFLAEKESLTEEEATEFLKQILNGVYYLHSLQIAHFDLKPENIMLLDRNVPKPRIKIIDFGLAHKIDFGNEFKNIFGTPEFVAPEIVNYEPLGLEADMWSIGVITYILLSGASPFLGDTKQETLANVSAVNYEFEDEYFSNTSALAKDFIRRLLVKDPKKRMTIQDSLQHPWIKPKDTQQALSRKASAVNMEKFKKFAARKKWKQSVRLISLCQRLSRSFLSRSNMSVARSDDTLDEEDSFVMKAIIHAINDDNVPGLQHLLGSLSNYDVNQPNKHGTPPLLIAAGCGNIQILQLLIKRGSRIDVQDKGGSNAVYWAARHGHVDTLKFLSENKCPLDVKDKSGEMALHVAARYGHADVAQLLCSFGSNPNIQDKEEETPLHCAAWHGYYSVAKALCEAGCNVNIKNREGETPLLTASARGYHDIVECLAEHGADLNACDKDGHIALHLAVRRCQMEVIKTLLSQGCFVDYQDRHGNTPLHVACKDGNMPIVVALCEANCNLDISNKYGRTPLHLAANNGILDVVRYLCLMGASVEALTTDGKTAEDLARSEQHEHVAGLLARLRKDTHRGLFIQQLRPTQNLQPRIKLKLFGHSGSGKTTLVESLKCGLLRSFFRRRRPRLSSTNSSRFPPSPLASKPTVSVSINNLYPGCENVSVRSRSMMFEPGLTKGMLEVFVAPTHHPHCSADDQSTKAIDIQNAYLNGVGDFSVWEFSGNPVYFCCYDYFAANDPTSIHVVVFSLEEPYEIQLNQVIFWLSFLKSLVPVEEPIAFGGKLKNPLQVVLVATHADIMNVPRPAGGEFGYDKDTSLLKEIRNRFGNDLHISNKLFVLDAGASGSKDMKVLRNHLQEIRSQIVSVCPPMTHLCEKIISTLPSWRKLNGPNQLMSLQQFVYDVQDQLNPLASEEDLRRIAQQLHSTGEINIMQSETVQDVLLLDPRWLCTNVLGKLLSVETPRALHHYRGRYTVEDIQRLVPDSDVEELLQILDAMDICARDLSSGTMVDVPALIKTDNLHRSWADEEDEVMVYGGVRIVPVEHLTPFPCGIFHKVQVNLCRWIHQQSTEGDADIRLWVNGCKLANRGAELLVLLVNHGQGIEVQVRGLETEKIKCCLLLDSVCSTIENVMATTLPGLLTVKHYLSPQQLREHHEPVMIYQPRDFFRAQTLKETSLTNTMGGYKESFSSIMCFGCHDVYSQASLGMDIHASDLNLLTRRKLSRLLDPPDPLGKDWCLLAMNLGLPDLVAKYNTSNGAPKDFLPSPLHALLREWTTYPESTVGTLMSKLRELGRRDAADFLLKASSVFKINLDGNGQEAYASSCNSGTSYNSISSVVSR
T2 sequence (O00311 whole entry): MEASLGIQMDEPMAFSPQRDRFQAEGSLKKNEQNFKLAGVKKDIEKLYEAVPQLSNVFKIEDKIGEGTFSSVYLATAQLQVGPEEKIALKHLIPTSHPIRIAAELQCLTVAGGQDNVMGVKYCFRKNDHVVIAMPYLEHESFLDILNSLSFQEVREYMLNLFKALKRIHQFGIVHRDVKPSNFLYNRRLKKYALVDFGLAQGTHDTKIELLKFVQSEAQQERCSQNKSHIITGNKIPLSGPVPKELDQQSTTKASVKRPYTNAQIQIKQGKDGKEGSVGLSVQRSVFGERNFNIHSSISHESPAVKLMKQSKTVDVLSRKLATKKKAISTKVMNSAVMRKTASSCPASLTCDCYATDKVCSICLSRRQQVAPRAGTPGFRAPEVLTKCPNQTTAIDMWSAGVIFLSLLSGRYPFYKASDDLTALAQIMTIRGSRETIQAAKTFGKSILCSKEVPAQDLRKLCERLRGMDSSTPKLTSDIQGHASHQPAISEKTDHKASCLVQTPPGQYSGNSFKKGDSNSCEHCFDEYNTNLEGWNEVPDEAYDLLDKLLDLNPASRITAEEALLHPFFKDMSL
T2 sequence (Q9UBU7 whole entry partner): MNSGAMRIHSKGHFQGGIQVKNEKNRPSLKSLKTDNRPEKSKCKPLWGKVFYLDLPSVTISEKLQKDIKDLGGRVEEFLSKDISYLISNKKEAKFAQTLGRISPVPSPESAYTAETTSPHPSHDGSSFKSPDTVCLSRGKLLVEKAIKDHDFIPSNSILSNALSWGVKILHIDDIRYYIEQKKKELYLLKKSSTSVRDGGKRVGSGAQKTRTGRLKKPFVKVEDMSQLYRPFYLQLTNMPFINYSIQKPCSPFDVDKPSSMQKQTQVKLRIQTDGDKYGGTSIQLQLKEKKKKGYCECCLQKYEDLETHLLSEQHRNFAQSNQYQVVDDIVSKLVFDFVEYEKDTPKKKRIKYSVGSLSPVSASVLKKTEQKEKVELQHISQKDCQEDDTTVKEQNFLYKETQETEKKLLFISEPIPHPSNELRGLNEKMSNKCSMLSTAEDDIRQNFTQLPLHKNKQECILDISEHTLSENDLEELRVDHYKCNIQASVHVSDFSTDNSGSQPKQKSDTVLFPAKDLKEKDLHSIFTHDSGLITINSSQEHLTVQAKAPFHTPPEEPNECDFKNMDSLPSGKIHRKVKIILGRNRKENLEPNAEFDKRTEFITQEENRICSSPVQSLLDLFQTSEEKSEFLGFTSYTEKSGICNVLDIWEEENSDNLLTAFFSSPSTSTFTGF
Sequence of VEGFR2 (P35968 20-1356): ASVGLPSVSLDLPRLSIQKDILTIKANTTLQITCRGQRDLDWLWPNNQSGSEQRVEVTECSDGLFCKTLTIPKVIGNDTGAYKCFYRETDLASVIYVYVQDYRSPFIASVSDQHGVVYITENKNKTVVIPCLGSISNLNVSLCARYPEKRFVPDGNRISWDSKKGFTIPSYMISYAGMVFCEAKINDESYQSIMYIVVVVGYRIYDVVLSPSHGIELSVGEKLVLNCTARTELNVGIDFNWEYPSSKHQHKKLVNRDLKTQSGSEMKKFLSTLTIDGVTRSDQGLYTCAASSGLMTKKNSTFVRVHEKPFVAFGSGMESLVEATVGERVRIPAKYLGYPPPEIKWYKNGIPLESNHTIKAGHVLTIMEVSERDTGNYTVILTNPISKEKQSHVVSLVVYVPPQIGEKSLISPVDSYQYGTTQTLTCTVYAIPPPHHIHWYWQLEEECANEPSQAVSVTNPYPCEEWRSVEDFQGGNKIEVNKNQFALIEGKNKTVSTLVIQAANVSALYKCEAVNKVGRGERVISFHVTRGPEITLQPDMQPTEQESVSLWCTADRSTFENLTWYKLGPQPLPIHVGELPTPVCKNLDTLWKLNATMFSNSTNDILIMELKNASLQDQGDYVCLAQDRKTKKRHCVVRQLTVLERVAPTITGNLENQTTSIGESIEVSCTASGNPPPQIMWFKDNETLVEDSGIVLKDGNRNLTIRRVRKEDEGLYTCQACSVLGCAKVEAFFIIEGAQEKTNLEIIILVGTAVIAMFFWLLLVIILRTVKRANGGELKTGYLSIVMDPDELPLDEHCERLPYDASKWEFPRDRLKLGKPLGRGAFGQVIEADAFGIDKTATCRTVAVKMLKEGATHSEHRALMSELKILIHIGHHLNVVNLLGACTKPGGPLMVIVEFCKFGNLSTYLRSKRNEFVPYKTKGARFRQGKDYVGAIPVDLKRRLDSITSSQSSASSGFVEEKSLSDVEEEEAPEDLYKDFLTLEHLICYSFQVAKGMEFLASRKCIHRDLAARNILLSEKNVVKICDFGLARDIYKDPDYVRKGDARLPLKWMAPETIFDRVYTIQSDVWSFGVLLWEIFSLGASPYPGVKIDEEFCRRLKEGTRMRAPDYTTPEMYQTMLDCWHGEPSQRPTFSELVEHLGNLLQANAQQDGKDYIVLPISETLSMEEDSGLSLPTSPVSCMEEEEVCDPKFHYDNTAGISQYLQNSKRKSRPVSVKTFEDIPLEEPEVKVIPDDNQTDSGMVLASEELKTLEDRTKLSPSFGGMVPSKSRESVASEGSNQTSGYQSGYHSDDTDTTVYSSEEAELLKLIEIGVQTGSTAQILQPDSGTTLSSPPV

In the case of CC(C)C[C@H](NC(=O)[C@H](Cc1ccccc1)NC(=O)c1cnccn1)B(O)O [Bortezomib], the “% Enzyme Activity (relative to DMSO controls), Average” value (DAPK1; DAPK1, 1 uM, Average) is reported as 99.82%, the “% Enzyme Activity (relative to DMSO controls), Data 1” value (DAPK1; DAPK1, 1 uM, replicate Data 1) is reported as 95.51% and the “% Enzyme Activity (relative to DMSO controls), Data 2” value (DAPK1; DAPK1, 1 uM, replicate Data 2) is reported as 104.12%. The “% Enzyme Activity (relative to DMSO controls), Average” value (DAPK1; DAPK1, 10 uM, Average) was 92.04%, the “% Enzyme Activity (relative to DMSO controls), Data 1” value (DAPK1; DAPK1, 10 uM, replicate Data 1) was 94.13% and the “% Enzyme Activity (relative to DMSO controls), Data 2” value (DAPK1; DAPK1, 10 uM, replicate Data 2) was 89.94%. For the same molecule, the “% Enzyme Activity (relative to DMSO controls), Average” value (CDC7; 1 uM) was 74.98%, the “% Enzyme Activity (relative to DMSO controls), Data 1” value (CDC7; 1 uM) was 77.59% and the “% Enzyme Activity (relative to DMSO controls), Data 2” value (CDC7; 1 uM) was 72.36%. For the same molecule, the “% Enzyme Activity (relative to DMSO controls), Average” value (CDC7; 10 uM) was 84.55%, the “% Enzyme Activity (relative to DMSO controls), Data 1” value (CDC7; 10 uM) was 84.43% and the “% Enzyme Activity (relative to DMSO controls), Data 2” value (CDC7; 10 uM) was 84.67%.

In the case of CN(C)CCCN1c2ccccc2Sc2ccc(Cl)cc21 [Chlorpromazine], the “% Enzyme Activity (relative to DMSO controls), Average” value (VEGFR2; 1 uM, Average) is reported as 105.46%, the “% Enzyme Activity (relative to DMSO controls), Data 1” value (VEGFR2; 1 uM, replicate Data 1) is reported as 101.88% and the “% Enzyme Activity (relative to DMSO controls), Data 2” value (VEGFR2; 1 uM, replicate Data 2) is reported as 109.04%. The “% Enzyme Activity (relative to DMSO controls), Average” value (VEGFR2; 10 uM, Average) was 105.67%, the “% Enzyme Activity (relative to DMSO controls), Data 1” value (VEGFR2; 10 uM, replicate Data 1) was 105.24% and the “% Enzyme Activity (relative to DMSO controls), Data 2” value (VEGFR2; 10 uM, replicate Data 2) was 106.1%. The “% Enzyme Activity (relative to DMSO controls), Average” value (MAP2K2; 1 uM, Average) was 103.60%, the “% Enzyme Activity (relative to DMSO controls), Data 1” value (MAP2K2; 1 uM, replicate Data 1) was 103.14% and the “% Enzyme Activity (relative to DMSO controls), Data 2” value (MAP2K2; 1 uM, replicate Data 2) was 104.05%. The “% Enzyme Activity (relative to DMSO controls), Average” value (MAP2K2; 10 uM, Average) was 101.38%, the “% Enzyme Activity (relative to DMSO controls), Data 1” value (MAP2K2; 10 uM, replicate Data 1) was 102.43% and the “% Enzyme Activity (relative to DMSO controls), Data 2” value (MAP2K2; 10 uM, replicate Data 2) was 100.33%.

With Oc1ccc(O)cc1 [Hydroquinone] the “% Enzyme Activity (relative to DMSO controls), Average” value (MST-4; 1 uM) was 86.76%, the “% Enzyme Activity (relative to DMSO controls), Data 1” value (MST-4; 1 uM) was 90.83% and the “% Enzyme Activity (relative to DMSO controls), Data 2” value (MST-4; 1 uM) was 82.69%. The “% Enzyme Activity (relative to DMSO controls), Average” value (MST-4; 10 uM) was 89.91%, the “% Enzyme Activity (relative to DMSO controls), Data 1” value (MST-4; 10 uM) was 90.73% and the “% Enzyme Activity (relative to DMSO controls), Data 2” value (MST-4; 10 uM) was 89.08%. The “% Enzyme Activity (relative to DMSO controls), Average” value (DAPK1) was 106.84% and 99.20%, the “% Enzyme Activity (relative to DMSO controls), Data 1” value (DAPK1) was 112.42% and 95.43% and the “% Enzyme Activity (relative to DMSO controls), Data 2” value (DAPK1) was 101.25% and 102.97%. The “% Enzyme Activity (relative to DMSO controls), Average” value (VEGFR2; 1 uM, Average) was 108.33%, the “% Enzyme Activity (relative to DMSO controls), Data 1” value (VEGFR2; 1 uM, replicate Data 1) was 107.95% and the “% Enzyme Activity (relative to DMSO controls), Data 2” value (VEGFR2; 1 uM, replicate Data 2) was 108.7%. For the same molecule, the “% Enzyme Activity (relative to DMSO controls), Average” value (VEGFR2; 10 uM, Average) was 108.92%, the “% Enzyme Activity (relative to DMSO controls), Data 1” value (VEGFR2; 10 uM, replicate Data 1) was 109.26% and the “% Enzyme Activity (relative to DMSO controls), Data 2” value (VEGFR2; 10 uM, replicate Data 2) was 108.57%.

For C[C@H](O)[C@H](O)[C@H]1CNc2nc(N)[nH]c(=O)c2N1 [Sapropterin], the “% Enzyme Activity (relative to DMSO controls), Average” value (MST-4; 1 uM) was 87.71%, the “% Enzyme Activity (relative to DMSO controls), Data 1” value (MST-4; 1 uM) was 88.88% and the “% Enzyme Activity (relative to DMSO controls), Data 2” value (MST-4; 1 uM) was 86.54%. The “% Enzyme Activity (relative to DMSO controls), Average” value (MST-4; 10 uM) was 87.19%, the “% Enzyme Activity (relative to DMSO controls), Data 1” value (MST-4; 10 uM) was 96.6% and the “% Enzyme Activity (relative to DMSO controls), Data 2” value (MST-4; 10 uM) was 77.78%. The “% Enzyme Activity (relative to DMSO controls), Average” value (VEGFR2; 1 uM, Average) was 98.99%, the “% Enzyme Activity (relative to DMSO controls), Data 1” value (VEGFR2; 1 uM, replicate Data 1) was 101.37% and the “% Enzyme Activity (relative to DMSO controls), Data 2” value (VEGFR2; 1 uM, replicate Data 2) was 96.61%. The “% Enzyme Activity (relative to DMSO controls), Average” value (VEGFR2; 10 uM, Average) was 98.14%, the “% Enzyme Activity (relative to DMSO controls), Data 1” value (VEGFR2; 10 uM, replicate Data 1) was 98.48% and the “% Enzyme Activity (relative to DMSO controls), Data 2” value (VEGFR2; 10 uM, replicate Data 2) was 97.79%. For the same molecule, the “% Enzyme Activity (relative to DMSO controls), Average” value (NEK2; 1 uM, Average) was 93.31%, the “% Enzyme Activity (relative to DMSO controls), Data 1” value (NEK2; 1 uM, replicate Data 1) was 92.46% and the “% Enzyme Activity (relative to DMSO controls), Data 2” value (NEK2; 1 uM, replicate Data 2) was 94.15%. The “% Enzyme Activity (relative to DMSO controls), Average” value (NEK2; 10 uM, Average) was 93.52%, the “% Enzyme Activity (relative to DMSO controls), Data 1” value (NEK2; 10 uM, replicate Data 1) was 92.39% and the “% Enzyme Activity (relative to DMSO controls), Data 2” value (NEK2; 10 uM, replicate Data 2) was 94.64%.

Work on N[C@@H](CC(=O)N1CCn2c(nnc2C(F)(F)F)C1)Cc1cc(F)c(F)cc1F [Sitagliptin] yielded a remaining activity at 1 µM (VEGFR2; [1]) of 97.9%, a remaining activity at 1 µM (VEGFR2; [2]) of 100% and a remaining activity at 1 µM (VEGFR2; [3]) of 95.6%. It also gave a remaining activity at 10 µM (VEGFR2; [4]) of 99.7%, a remaining activity at 10 µM (VEGFR2; [5]) of 99.4% and a remaining activity at 10 µM (VEGFR2; [6]) of 100%. For the same molecule, the remaining activity at 1 µM (NEK2; [1]) was 92.4%, the remaining activity at 1 µM (NEK2; [2]) was 89.3% and the remaining activity at 1 µM (NEK2; [3]) was 95.5%. The remaining activity at 10 µM (NEK2; [4]) was 86.5%, the remaining activity at 10 µM (NEK2; [5]) was 82.7% and the remaining activity at 10 µM (NEK2; [6]) was 90.3%. The remaining activity at 1 µM (MAP2K2; [1]) was 100%, the remaining activity at 1 µM (MAP2K2; [2]) was 101% and the remaining activity at 1 µM (MAP2K2; [3]) was 99.3%. It also gave a remaining activity at 10 µM (MAP2K2; [4]) of 94.3%, a remaining activity at 10 µM (MAP2K2; [5]) of 96.2% and a remaining activity at 10 µM (MAP2K2; [6]) of 92.4%.
